Assay results: US9220261B1, “Volatile blends and the effects thereof on the navel orangeworm moth” (The United States of America, as represented by the …, priority 2010, dated 2015)

What was measured:
NOW [1] = experiment: Electroantennographic studies of CONO; design: species or system Amyelois transitella; settings: lower than the positive standard
NOW [2] = experiment: Field trapping screening studies of individual CONO; type: in vivo, Amyelois transitella; settings: September 2 to Oct. 5, 2009, almond and pistachio orchards
From the text: FAB.x and GAVA.x blends were mixed with another component, conophthorin (CONO). CONO increased the efficacy of the blends in the FAB4 and GAVA series. This was somewhat unexpected as CONO alone is not attractive to NOW. […] Subsequent field trapping screening studies of individual CONO between September 2 and Oct. […] Virgin female NOW-baited traps at the same time indicated pressures of NOW in the orchards.

female NOW antennae = experiment: Electroantennogram (EAG) bioassay, female NOW antennae; design: species or system Amyelois transitella; settings: Example 1; 50 μg on disc (almond meal 3.1 mg); raw response minus NegCtrl
Description: The EAG experiments were performed by similar protocols described previously (Beck et al., 2009, supra). The antennae of sexed NOW were excised, positioned on a fork electrode using electrode gel, and connected to an IDAC-4 acquisition controller and electrophysiological amplifier using PC-based software (Syntech, Kirchzarten, Germany). The antennae were humidified with a stream of purified air bubbled through distilled water at a flow rate of 200 ml/min. The individual compounds for EAG analysis (50 μg; 10 μl of a 5 μg/μl solution in pentane) were loaded onto oven-dried 0.64 cm assay discs, allowed to air-dry for five min, inserted into 14.6 cm Pasteur pipets and the ends temporarily capped with parafilm. […] For almond meal analyses, 3.1 mg was placed in a Pasteur pipet containing very lightly packed glass wool. Negative control ([…]) discs were prepared using a similar method, but with 10 μl of pentane prior to solvent evaporation. Positive control (PosCtrl) discs were prepared using the major sex pheromone component (Z,Z)-11,13-hexadecadienal (50 μg, Suterra LLC, Bend, Oreg.). The pipets loaded with the individual compounds were attached via tubing to a stimulus controller unit (Syntech). The antennae were exposed to each compound by a two-second puff of air and the resulting response recorded. […]

Structure (SMILES) | electroantennographic activity (NOW [1]) | attraction of NOW in field trapping (NOW [2]) | EAG antennal response from female NOW, normalized (female NOW antennae) [μV]
C[C@@H]1CCC[C@@]2(CCCO2)O1 [CONO, 7-methyl-1,6-dioxaspiro[4.5]decane] | mildly active | did not attract any NOW | 
CC(=O)c1ccccc1 [acetophenone] |  |  | 397
Oc1ccccc1 [phenol] |  |  | 78
